Where a name gives a salt, the structure may show the parent alone.
First: Cc1[nH]c2c(N3CCNCC3)cccc2c1S(=O)(=O)c1ccc(F)cc1 [compound 603, 3-(4-fluorobenzenesulfonyl)-2-methyl-7-piperazin-1-yl-1H-indole]
Second: Cc1[nH]c2c(N3CCNCC3)cccc2c1S(=O)(=O)c1ccc(Cl)cc1 [compound 602, 3-(4-chlorobenzenesulfonyl)-2-methyl-7-piperazin-1-yl-1H-indole]
The melting point of the first is higher: 232 to 236 °C for the first, 118 to 120 °C for the second.

First: c1ccc(Sc2c[nH]c3ccc(N4CCNCC4)cc23)cc1
Second: c1ccc(Sc2c[nH]c3c(N4CCNCC4)cccc23)cc1
The melting point of the first is lower: 246 to 247 °C for the first, 300 °C for the second.

Compared with O=S(=O)(c1ccccc1)c1c[nH]c2c(N3CCN(CC4CC4)CC3)cccc12 [compound 511, 3-benzenesulfonyl-7-(4-cyclopropylmethyl-piperazin-1-yl)-1H-indole], CCN1CCN(c2cccc3c(S(=O)(=O)c4ccccc4)c[nH]c23)CC1 [compound 513, 3-benzenesulfonyl-7-(4-ethyl-piperazin-1-yl)-1H-indole] is lower in melting point: 280 to 282 °C for the first, 274 to 275 °C for the second.

Compared with COc1ccc(S(=O)(=O)c2c(C)[nH]c3c(N4CCNCC4)cccc23)cc1 [compound 604, 3-(4-methoxybenzenesulfonyl)-2-methyl-7-piperazin-1-yl-1H-indole], Cc1ccc(S(=O)(=O)c2c[nH]c3c(N4CCNCC4)cccc23)cc1 [compound 102, 7-piperazin-1-yl-3-(toluene-4-sulfonyl)-1H-indole] is higher in melting point: 182 to 184 °C for the first, 285 to 287 °C for the second.

Compared with O=S(=O)(c1ccccc1C(F)(F)F)c1c[nH]c2c(N3CCNCC3)cccc12 [compound 109, 7-piperazin-1-yl-3-(2-trifluoromethyl-benzenesulfonyl)-1H-indole], O=S(=O)(c1ccccc1Cl)c1c[nH]c2c(N3CCNCC3)cccc12 [compound 108, 3-(2-chloro-benzenesulfonyl)-7-piperazin-1-yl-1H-indole] is higher in melting point: 186 to 187 °C for the first, 280 to 282 °C for the second.

O=S(=O)(c1nc2ccccc2s1)c1c[nH]c2c(N3CCNCC3)cccc12 [compound 114, 2-(7-piperazin-1-yl-1H-indole-3-sulfonyl)-benzothiazole] and O=S(=O)(c1cccc(Cl)c1)c1c[nH]c2c(N3CCNCC3)cccc12 [compound 107, 3-(3-chloro-benzenesulfonyl)-7-piperazin-1-yl-1H-indole] are the same in melting point: 295 °C for the first, 295 °C for the second.

First: Cn1cc(S(=O)(=O)c2ccccc2Cl)c2cccc(N3CCNCC3)c21 [compound 407, 3-(2-chloro-benzenesulfonyl)-1-methyl-7-piperazin-1-yl-1H-indole]
Second: Cn1cc(S(=O)(=O)c2ccccc2)c2cccc(N3CCNCC3)c21 (as salt: hydrochloride) [compound 401, 3-benzenesulfonyl-1-methyl-7-piperazin-1-yl-1H-indole hydrochloride]
The melting point of the first is higher: 295 to 297 °C for the first, 249 to 250 °C for the second.

Going from O=S(=O)(c1ccc(Cl)c(Cl)c1)c1c[nH]c2c(N3CCNCC3)cccc12 [compound 103, 3-(3,4-dichloro-benzenesulfonyl)-7-piperazin-1-yl-1H-indole] to O=S(=O)(c1ccc(Cl)cc1Cl)c1c[nH]c2c(N3CCNCC3)cccc12 [compound 106, 3-(2,4-dichloro-benzenesulfonyl)-7-piperazin-1-yl-1H-indole], the melting point rises from 290 °C to 300 °C.

First: Cn1cc(S(=O)(=O)c2ccccn2)c2cccc(N3CCNCC3)c21 [compound 402, 1-methyl-7-piperazin-1-yl-3-(pyridine-2-sulfonyl)-1H-indole]
Second: Cn1cc(S(=O)(=O)c2ccccn2)c2cc(N3CCNCC3)ccc21 [compound 416, 1-methyl-5-piperazin-1-yl-3-(pyridine-2-sulfonyl)-1H-indole]
The melting point of the first is higher: 297 to 298 °C for the first, 256.8 to 257.5 °C for the second.

Compared with CCCN1CCN(c2cccc3c(S(=O)(=O)c4ccccc4)c[nH]c23)CC1 [compound 512, 3-benzenesulfonyl-7-(4-propyl-piperazin-1-yl)-1H-indole], CN1CCN(c2cccc3c(S(=O)(=O)c4ccccc4)c[nH]c23)CC1 (as salt: hydrochloride) [compound 501, 3-benzenesulfonyl-7-(4-methyl-piperazin-1-yl)-1H-indole] is lower in melting point: 290 to 295 °C for the first, 160 to 162 °C for the second.

Compared with O=S(=O)(c1ccc(C(F)(F)F)cc1)c1c[nH]c2ccc(N3CCNCC3)cc12 [compound 203, 5-piperazin-1-yl-3-(4-trifluoromethyl-benzenesulfonyl)-1H-indole], O=S(=O)(c1ccc(F)cc1)c1c[nH]c2ccc(N3CCNCC3)cc12 [compound 207, 3-(4-fluoro-benzenesulfonyl)-5-piperazin-1-yl-1H-indole] is higher in melting point: 274.9 to 280.9 °C for the first, 289 to 291 °C for the second.

First: O=S(=O)(c1ccccn1)c1c[nH]c2cc(N3CCNCC3)ccc12
Second: O=S(=O)(c1ccc(Cl)cc1)c1c[nH]c2ccc(N3CCNCC3)cc12 [compound 204, 3-(4-chloro-benzenesulfonyl)-5-piperazin-1-yl-1H-indole]
The melting point of the first is lower: 246.7 to 247.2 °C for the first, 282 to 286.4 °C for the second.

Compared with CN1CCN(c2cccc3c(S(=O)(=O)c4cccc(Cl)c4)c[nH]c23)CC1 [compound 505, 3-(3-chloro-benzenesulfonyl)-7-(4-methyl-piperazin-1-yl)-1H-indole], CN1CCN(c2cccc3c(S(=O)(=O)c4ccc(Cl)c(Cl)c4)c[nH]c23)CC1 [compound 503, 3-(3,4-dichloro-benzenesulfonyl)-7-(4-methyl-piperazin-1-yl)-1H-indole] is higher in melting point: 163 to 171 °C for the first, 196 to 203 °C for the second.

First: Cn1cc(S(=O)(=O)c2cccc(Cl)c2)c2cccc(N3CCNCC3)c21 [compound 408, 3-(3-chloro-benzenesulfonyl)-1-methyl-7-piperazin-1-yl-1H-indole]
Second: Cn1cc(S(=O)(=O)c2cccc(C(F)(F)F)c2)c2cccc(N3CCNCC3)c21 [compound 406, 1-methyl-7-piperazin-1-yl-3-(3-trifluoromethyl-benzenesulfonyl)-1H-indole]
The melting point of the first is higher: 300 °C for the first, 279 to 280 °C for the second.

Compared with Cn1cc(S(=O)(=O)c2cc(Cl)cc(Cl)c2)c2cc(N3CCNCC3)ccc21 [compound 411, 3-(3,5-dichloro-benzenesulfonyl)-1-methyl-5-piperazin-1-yl-1H-indole], Cn1cc(S(=O)(=O)c2cccc(Cl)c2Cl)c2cc(N3CCNCC3)ccc21 [compound 409, 3-(2,3-dichloro-benzenesulfonyl)-1-methyl-5-piperazin-1-yl-1H-indole] is lower in melting point: 282 to 284.5 °C for the first, 198 to 203 °C for the second.

First: CN1CCN(c2cccc3c(S(=O)(=O)c4ccc(Cl)cc4Cl)c[nH]c23)CC1 [compound 506, 3-(2,4-dichloro-benzenesulfonyl)-7-(4-methyl-piperazin-1-yl)-1H-indole]
Second: CN1CCN(c2cccc3c(S(=O)(=O)c4cc(Cl)cc(Cl)c4)c[nH]c23)CC1 [compound 507, 3-(3,5-dichloro-benzenesulfonyl)-7-(4-methyl-piperazin-1-yl)-1H-indole]
The melting point of the first is lower: 199 to 203 °C for the first, 237.1 to 241.5 °C for the second.

First: Clc1cccc(Sc2c[nH]c3ccc(N4CCNCC4)cc23)c1Cl
Second: Cn1cc(S(=O)(=O)c2ccccc2Cl)c2cc(N3CCNCC3)ccc21 [compound 414, 3-(2-chloro-benzenesulfonyl)-1-methyl-5-piperazin-1-yl-1H-indole]
The melting point of the first is higher: 255.1 to 255.5 °C for the first, 249.6 to 253 °C for the second.

First: Cn1cc(S(=O)(=O)c2ccc(F)cc2)c2cc(N3CCNCC3)ccc21 [compound 413, 3-(4-fluoro-benzenesulfonyl)-1-methyl-5-piperazin-1-yl-1H-indole]
Second: Cn1cc(S(=O)(=O)c2ccc(F)cc2)c2cccc(N3CCNCC3)c21 [compound 405, 3-(4-fluoro-benzenesulfonyl)-1-methyl-7-piperazin-1-yl-1H-indole]
The melting point of the first is lower: 195 to 207 °C for the first, 300 °C for the second.

First: O=S(=O)(c1cccc(Cl)c1)c1c[nH]c2c(C3CCNCC3)cccc12 [compound 208, 3-(3-Chloro-benzenesulfonyl)-7-piperidin-4-yl-1H-indole]
Second: CN1CCC(c2cccc3c(S(=O)(=O)c4ccc(F)cc4)c[nH]c23)CC1 [compound 510, 3-(4-fluoro-benzenesulfonyl)-7-(1-methyl-piperidin-4-yl)-1H-indole]
The melting point of the first is higher: 272.3 to 272.9 °C for the first, 178 to 182 °C for the second.

Compared with O=S(=O)(c1cc(Cl)cc(Cl)c1)c1c[nH]c2c(N3CCNCC3)cccc12 [compound 105, 3-(3,5-dichloro-benzenesulfonyl)-7-piperazin-1-yl-1H-indole], O=S(=O)(c1ccc(F)cc1)c1c[nH]c2c(N3CCNCC3)cccc12 [compound 104, 3-(4-fluoro-benzenesulfonyl)-7-piperazin-1-yl-1H-indole] is lower in melting point: 290 °C for the first, 247 to 249 °C for the second.

First: O=S(=O)(c1ccncc1)c1c[nH]c2c(N3CCNCC3)cccc12
Second: CN1CCN(c2cccc3c(S(=O)(=O)c4ccccc4)cn(C)c23)CC1 [compound 502, 3-benzenesulfonyl-1-methyl-7-(4-methyl-piperazin-1-yl)-1H-indole]
The melting point of the first is lower: 207 to 208 °C for the first, 260 to 262 °C for the second.

For Cn1cc(S(=O)(=O)c2ccccc2)c2cc(N3CCNCC3)ccc21 [compound 403, 3-benzenesulfonyl-1-methyl-5-piperazin-1-yl-1H-indole], the melting point was 239 to 240 °C (dec.).
O=S(=O)(c1cc(Cl)cc(Cl)c1)c1c[nH]c2ccc(N3CCNCC3)cc12 [compound 205, 3-(3,5-dichloro-benzenesulfonyl)-5-piperazin-1-yl-1H-indole] showed a melting point greater than 300 °C.
O=S(=O)(c1ccc(Cl)c(Cl)c1)c1c[nH]c2ccc(N3CCNCC3)cc12 [compound 111, 3-(3,4-dichloro-benzenesulfonyl)-5-piperazin-1-yl-1H-indole] gave a melting point greater than 300 °C.
For O=S(=O)(c1cccc(Cl)c1Cl)c1c[nH]c2ccc(N3CCNCC3)cc12 [compound 202, 3-(2,3-dichloro-benzenesulfonyl)-5-piperazin-1-yl-1H-indole], the melting point was greater than 300 °C.
With O=S(=O)(c1ccccc1Cl)c1c[nH]c2ccc(N3CCNCC3)cc12 [compound 206, 3-(2-chloro-benzenesulfonyl)-5-piperazin-1-yl-1H-indole] the melting point was greater than 300 °C.
In the case of O=S(=O)(c1ccccc1)c1c[nH]c2ccc(N3CCNCC3)cc12, the melting point is reported as 254 to 264 °C (dec.).

Reference: patent US6787535B2, “Indole derivatives with 5HT6 receptor affinity” (Syntex (U.S.A.) LLC, priority 2001, dated 2004)
